Test results taken from paper PMC6713165, “Identification of 1H-pyrazolo[3,4-b]pyridine derivatives as potent ALK-L1196M inhibitors” (Journal of Enzyme Inhibition and Medicinal Chemistry, 2019).
Read-outs that look alike come from different tables or passages of the source.

Tests used:
ALK-C1156Y = ALK-C1156Y (Homo sapiens, UniProt Q9UM73, C1156Y); assay: Radiometric biochemical kinase assay, ALK-C1156Y
Experimental: (§1) Biochemical kinase assay was performed by methods previously reported. Kinase reactions of all test compounds except 10g were carried out at 10 µM ATP. Kinase reaction of 10g was performed at three different concentrations of ATP (10/50/100 µM).

ALK-T1151-L1152insT = ALK-T1151-L1152insT (Homo sapiens, UniProt Q9UM73, INS1151T); assay: Radiometric biochemical kinase assay, ALK-T1151-L1152insT
Experimental: as §1

ROS1 = ROS1 (Homo sapiens, UniProt P08922); assay: Biochemical kinase assay, ROS1
Experimental: as §1

c-Met = c-Met (Homo sapiens, UniProt P08581); assay: Biochemical kinase assay, c-Met
Experimental: as §1

Lyn = Lyn (Homo sapiens, UniProt P07948); assay: Biochemical kinase assay, Lyn
Experimental: as §1

H2228 (EML4-ALK) cells = assay: Anti-proliferation assay (CTG), H2228; type: cell-based; details: Homo sapiens, NCI-H2228, 72 h, mean ± SD of three independent experiments
Experimental: (§2) ALK wt-TEL, ALK L1196M-TEL transformed Ba/F3 and H2228 cell lines were cultured in RPMI1640 (Welgene, # LM011-01). […] Parental Ba/F3 cells were cultured in RPMI1640 media supplemented with 10% foetal bovine serum and 1% penicillin/streptomycin solution in the presence of IL-3. The cells were maintained in a humidified atmosphere containing 5% CO2 at 37 °C.
(§3) Cells (ALK wt-TEL, ALK L1196M-TEL and Parental Ba/F3: 1 × 10^4, H2228: 5 × 10^3) were plated in 96 well tissue culture plates. Each compound was added to each well at 10 dose points of three-fold serial dilution in DMSO. After treatment with each compound for 72 h, CTG assay solution (Promega, # G7572) was added to each well.

ALK wt-TEL Ba/F3 cells = assay: Anti-proliferation assay (CTG), ALK wt-TEL Ba/F3; type: cell-based; details: Mus musculus, BaF3
Experimental: as §2, §3

H2228 cells = assay: Apoptosis analysis (annexin V-FITC/PI, FACS), H2228; type: cell-based; details: H2228, 48 h, in words
Experimental: After 24–48 h following compound treatment, cells were harvested and stained with annexin V (1:500 diluted in annexin V buffer) for 30 min and PI (1:200) solution for 30 min. 1 × 10^6 cells were analysed using flow cytometric analysis. For the cell cycle arrest analysis, cells were harvested by trypsinisation and fixed with 70% ethanol overnight at −20 °C. The next day, cells were harvested and washed with cold DPBS at 500 × g.

Sequence of c-Met (P08581 25-1390): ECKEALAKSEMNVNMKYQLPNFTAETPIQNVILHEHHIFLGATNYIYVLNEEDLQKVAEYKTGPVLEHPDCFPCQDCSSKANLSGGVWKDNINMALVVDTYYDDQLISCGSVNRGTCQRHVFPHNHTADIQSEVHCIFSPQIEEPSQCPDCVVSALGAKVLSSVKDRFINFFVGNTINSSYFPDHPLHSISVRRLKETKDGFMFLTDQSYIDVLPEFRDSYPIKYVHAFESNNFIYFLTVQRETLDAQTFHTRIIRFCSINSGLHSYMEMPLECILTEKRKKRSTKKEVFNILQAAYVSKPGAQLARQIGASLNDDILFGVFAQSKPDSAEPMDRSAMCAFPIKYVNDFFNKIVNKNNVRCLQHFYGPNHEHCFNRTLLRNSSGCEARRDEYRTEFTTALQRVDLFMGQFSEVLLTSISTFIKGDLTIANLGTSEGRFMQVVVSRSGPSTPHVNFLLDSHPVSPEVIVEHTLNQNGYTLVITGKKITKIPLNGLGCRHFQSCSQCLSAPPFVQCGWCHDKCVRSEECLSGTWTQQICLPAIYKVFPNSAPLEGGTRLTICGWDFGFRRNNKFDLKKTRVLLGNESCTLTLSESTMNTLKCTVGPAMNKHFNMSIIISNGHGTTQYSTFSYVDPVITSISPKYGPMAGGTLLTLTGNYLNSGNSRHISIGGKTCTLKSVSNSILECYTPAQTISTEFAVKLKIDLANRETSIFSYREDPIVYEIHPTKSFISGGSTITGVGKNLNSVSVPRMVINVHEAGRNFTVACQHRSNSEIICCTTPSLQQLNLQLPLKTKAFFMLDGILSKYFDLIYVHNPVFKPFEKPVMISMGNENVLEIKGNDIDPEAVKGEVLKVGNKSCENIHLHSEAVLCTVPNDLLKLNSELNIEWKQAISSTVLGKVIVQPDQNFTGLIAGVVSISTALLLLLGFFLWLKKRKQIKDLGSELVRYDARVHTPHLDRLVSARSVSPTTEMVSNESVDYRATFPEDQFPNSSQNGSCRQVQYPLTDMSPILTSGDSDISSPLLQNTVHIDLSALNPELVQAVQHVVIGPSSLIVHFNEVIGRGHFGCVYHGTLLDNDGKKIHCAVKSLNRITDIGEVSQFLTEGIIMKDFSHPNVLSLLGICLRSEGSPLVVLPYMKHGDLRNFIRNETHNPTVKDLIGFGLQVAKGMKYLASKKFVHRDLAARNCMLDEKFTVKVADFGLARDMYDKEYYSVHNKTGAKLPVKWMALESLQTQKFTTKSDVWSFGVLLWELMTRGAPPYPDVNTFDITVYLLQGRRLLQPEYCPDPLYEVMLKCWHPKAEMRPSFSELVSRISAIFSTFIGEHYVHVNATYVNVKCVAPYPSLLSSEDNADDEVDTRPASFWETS
Sequence of ALK-T1151-L1152insT (Q9UM73 with tags, fused parts or gaps INS1151T limits assumed): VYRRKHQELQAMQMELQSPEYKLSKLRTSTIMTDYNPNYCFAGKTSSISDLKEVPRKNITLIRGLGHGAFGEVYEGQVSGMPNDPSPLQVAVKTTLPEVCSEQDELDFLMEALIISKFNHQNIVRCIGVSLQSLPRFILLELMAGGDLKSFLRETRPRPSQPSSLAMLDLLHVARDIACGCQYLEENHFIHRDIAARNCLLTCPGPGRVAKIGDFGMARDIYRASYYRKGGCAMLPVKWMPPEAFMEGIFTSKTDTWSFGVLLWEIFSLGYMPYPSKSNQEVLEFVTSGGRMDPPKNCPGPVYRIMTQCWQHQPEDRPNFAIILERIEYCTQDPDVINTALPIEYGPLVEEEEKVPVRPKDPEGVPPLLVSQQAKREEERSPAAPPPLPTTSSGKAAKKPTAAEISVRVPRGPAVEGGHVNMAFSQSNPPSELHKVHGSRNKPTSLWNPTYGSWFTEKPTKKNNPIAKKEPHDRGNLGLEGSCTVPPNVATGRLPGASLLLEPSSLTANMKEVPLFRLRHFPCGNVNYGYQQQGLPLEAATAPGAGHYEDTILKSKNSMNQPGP
Sequence of Lyn (P07948 whole entry): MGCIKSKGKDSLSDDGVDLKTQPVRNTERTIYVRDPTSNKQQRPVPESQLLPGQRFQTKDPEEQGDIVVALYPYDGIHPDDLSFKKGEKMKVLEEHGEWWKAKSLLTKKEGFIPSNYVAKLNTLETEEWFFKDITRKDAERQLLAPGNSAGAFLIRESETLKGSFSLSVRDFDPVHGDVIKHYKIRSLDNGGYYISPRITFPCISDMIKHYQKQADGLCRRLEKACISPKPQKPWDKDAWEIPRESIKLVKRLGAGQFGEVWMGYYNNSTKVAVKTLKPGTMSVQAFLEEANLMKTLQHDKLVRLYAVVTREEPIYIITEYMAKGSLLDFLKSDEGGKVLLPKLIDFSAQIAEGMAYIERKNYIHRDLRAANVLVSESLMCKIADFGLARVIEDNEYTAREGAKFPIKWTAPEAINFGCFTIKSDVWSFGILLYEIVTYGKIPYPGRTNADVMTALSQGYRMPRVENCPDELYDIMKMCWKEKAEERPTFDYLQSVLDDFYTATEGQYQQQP
Sequence of ROS1 (P08922 28-2347): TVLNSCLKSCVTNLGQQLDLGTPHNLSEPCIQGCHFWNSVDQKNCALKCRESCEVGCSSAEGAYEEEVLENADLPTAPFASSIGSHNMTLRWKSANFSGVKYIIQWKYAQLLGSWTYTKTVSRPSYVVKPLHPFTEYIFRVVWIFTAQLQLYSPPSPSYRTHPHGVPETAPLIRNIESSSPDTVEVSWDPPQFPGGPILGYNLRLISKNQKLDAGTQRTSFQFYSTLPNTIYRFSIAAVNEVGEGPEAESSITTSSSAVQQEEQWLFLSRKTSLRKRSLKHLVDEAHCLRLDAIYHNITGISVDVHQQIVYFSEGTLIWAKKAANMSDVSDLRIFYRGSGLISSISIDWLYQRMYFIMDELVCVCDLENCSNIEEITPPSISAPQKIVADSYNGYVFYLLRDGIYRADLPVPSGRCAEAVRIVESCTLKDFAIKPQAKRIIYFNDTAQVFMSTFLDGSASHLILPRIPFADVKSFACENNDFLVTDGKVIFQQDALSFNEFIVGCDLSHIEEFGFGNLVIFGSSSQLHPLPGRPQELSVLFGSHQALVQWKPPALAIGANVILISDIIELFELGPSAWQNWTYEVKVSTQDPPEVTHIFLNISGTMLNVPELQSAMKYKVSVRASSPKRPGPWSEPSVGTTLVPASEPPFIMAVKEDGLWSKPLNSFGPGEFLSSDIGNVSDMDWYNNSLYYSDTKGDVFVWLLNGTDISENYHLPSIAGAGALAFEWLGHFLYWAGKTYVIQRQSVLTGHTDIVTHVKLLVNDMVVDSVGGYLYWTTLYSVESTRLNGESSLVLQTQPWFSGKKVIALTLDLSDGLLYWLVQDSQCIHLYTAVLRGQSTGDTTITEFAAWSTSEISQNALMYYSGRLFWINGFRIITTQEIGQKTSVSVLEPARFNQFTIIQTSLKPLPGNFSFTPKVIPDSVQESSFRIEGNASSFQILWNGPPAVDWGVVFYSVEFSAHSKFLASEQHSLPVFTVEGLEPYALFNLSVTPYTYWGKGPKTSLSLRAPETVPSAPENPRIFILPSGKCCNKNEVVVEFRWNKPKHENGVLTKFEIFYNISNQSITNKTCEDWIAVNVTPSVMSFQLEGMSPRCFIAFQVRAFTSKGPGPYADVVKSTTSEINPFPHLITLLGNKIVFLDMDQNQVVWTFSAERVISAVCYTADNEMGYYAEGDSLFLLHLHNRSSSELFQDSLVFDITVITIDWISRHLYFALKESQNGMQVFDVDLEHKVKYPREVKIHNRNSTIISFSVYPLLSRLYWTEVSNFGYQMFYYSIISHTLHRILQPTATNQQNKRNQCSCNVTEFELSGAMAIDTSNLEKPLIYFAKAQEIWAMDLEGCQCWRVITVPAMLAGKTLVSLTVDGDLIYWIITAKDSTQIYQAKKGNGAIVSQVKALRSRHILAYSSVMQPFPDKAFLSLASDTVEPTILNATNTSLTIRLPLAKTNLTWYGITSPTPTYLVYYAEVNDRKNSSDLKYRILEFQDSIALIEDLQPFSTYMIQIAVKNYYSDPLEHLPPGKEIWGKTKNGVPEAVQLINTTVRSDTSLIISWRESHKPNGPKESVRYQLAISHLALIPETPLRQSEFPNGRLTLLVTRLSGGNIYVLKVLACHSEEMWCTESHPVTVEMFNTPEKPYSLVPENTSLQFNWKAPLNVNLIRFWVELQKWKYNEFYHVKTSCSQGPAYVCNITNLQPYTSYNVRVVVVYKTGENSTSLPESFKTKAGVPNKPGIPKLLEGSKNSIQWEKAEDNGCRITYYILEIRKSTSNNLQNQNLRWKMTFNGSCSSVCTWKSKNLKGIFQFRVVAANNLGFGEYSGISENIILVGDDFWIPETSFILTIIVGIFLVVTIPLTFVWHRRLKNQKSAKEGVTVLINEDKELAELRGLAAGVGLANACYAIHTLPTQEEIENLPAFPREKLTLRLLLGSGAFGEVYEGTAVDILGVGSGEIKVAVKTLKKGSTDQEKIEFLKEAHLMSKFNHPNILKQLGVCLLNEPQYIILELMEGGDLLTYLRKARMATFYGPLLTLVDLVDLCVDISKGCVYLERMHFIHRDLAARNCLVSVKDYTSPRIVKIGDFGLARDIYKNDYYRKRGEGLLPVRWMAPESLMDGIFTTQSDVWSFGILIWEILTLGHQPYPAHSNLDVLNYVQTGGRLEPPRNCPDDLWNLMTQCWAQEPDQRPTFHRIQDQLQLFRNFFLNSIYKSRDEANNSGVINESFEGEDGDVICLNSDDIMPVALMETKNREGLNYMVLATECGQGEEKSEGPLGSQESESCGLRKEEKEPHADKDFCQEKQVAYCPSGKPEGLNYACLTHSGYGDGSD

For `CN1CCN(c2ccc(C(=O)Nc3n[nH]c4ncc(S(=O)(=O)c5cccc(F)c5)cc34)cc2)CC1` [10g, N-(5-((3-Fluorophenyl)sulfonyl)-1H-pyrazolo[3,4-b]pyridin-3-yl)-4–(4-methylpiperazin-1-yl)benzamide], the IC50 (ALK-C1156Y) was 1.81 nM, the IC50 (ALK-T1151-L1152insT) was 6.19 nM and the IC50 (ROS1) was < 1 nM. The “selectivity, more potent against ALK-wt than c-Met” value (c-Met; ALK-wt vs c-Met IC50) was “over 7000 fold”, the IC50 (c-Met; biochemical kinase assay) was 3780 nM and the IC50 (Lyn) was 33 nM. For the same compound, the GI50 (H2228 (EML4-ALK) cells) was 219 ± 50 nM, the GI50 (ALK wt-TEL Ba/F3 cells; 72 h, CTG, mean ± SD of three independent experiments, read-out: GI50 Ba/F3 cell lines ALK wt-TEL) was 205 ± 60 nM and the GI50 (ALK wt-TEL Ba/F3 cells; stated in text for both ALK-driven Ba/F3 lines (ALK wt-TEL and ALK L1196M-TEL), read-out: GI50 ALK-driven Ba/F3 cells) was < 205 nM. The “apoptosis induction (FACS)” value (H2228 cells) was “induces apoptosis in H2228 cells in a dose dependent fashion”.
